Experiments:
[1] = test system: I1 receptors over α2 adrenergic receptors; details: bovine RVLM; saturation binding; Ernsberger et al., J. Pharmacol. Exp. Ther., 264, 172-182 (1993); cited from earlier work
[2] = test system: Zucker diabetic fatty rat (ZDF-DRT-fa); test: Plasma glucose in 6 week-old prediabetic Zucker diabetic fatty rats; assay type: in vivo; details: value (SEM)
Protocol: (§1) The activity of the compounds of the present invention was determined by testing the efficacy in vivo in Zucker diabetic rats.
(§2) The Zucker diabetic fatty rat (ZDF-DRT-fa) is a classic rodent model of diabetes associated with obesity and insulin resistance, with tissue specific defects in insulin sensitivity similar to human patients with type II diabetes mellitus. This animal model at six weeks of age is normoglycemic, but glucose intolerant (Clark JB, Palmer CJ, and Shaw WN: The diabetic Zucker fatty rat, Proceeding of the Society for Experimental Bioloqy and Medicine 173, 68-75, 1983; and Peterson RG, Shaw WN, Neel M, Little LA, Eichburg J: Zucker diabetic fatty rat as a model for non-insulin dependent diabetes mellitus. ILAR News 32:16-19, 1990.) Between seven and eight weeks of age, plasma glucose levels rise as the pancreatic beta cells lose their ability to secrete sufficient insulin to compensate for insulin resistance. In an attempt to maintain plasma glucose in normal range, the pancreas is forced to secrete increasing amount of insulin, resulting in hyperinsulinemia (Bue JM and Shaw WN: ZDF-Drt-fa rat: A new model with marked susceptibility to dietary manipulation. Diabetes 40:865A, 1991). The ZDF rat is usually studied between eight and nine weeks of age when it is hyperglycemic, hyperinsulinemic, and hyperlipemic, in an attempt to halt further decline of pancreatic function. The present study was carried out in six weeks old animals (prediabetic). The purpose of this study was to determine whether moxonidine treatment will prevent or delay onset of diabetes in the six weeks old prediabetic ZDF rat.
(§3) To determine the impact of treatment with the substituted aminopyrimidines of Formula I on the progression of disease 6 week-old ZDF animals were grouped into the following categories, with 5 animals assigned to each group. Group 1 Control (5008 chow ad libitum) Group 2 Moxonidine (10 mg/kg/day) Group 3 Pair fed to correct for decrease in food consumption in 10 mg/kg/day group
(§4) Rats were housed one per plastic cage with bedding and had free access to water and Purina Formulalab 5008 Chow (except pair fed group). Because previous studies had indicated a reduction in food consumption with moxonidine treatment, body weight and food consumption were monitored daily, and a group of control animals was pair fed to moxonidine treated group. Blood samples were collected from the tail vein. Plasma glucose and insulin levels are monitored weekly.
(§5) Plasma glucose was measured by coupled hexokinase method on the IL Monarch System (Instrumentation Laboratory, Lexington, MA). Plasma insulin was determined with radioimmunoassay kit from Diagnostics Products Corporation (San Diego, CA) using rat insulin as a standard.
(§6) Plasma glucose and plasma insulin were monitored weekly. The results of these in vivo experiments are set forth below in Tables 1 and 2. The value in parenthesis following the plasma glucose value and plasma insulin value is the standard error of the mean.

[3] = test system: Zucker diabetic fatty rat (ZDF-DRT-fa); test: Plasma insulin in 6 week-old prediabetic Zucker diabetic fatty rats; assay type: in vivo; details: value (SEM)
Protocol: as §1, §2, §3, §4, §5, §6

[4] = test system: Zucker diabetic fatty rat (ZDF-DRT-fa); test: Further study: plasma glucose in ZDF rats with dose reduction and withdrawal of treatment; assay type: in vivo
Protocol: as §3, §4, §5
A further study was carried out as described above, except that moxonidine treatment was reduced to 6.4 mg/kg/day for two days, followed by resumption of moxonidine treatment at 10 mg/kg/day for 13 days, and then stopping moxonidine treatment.

With `Clc1cccc(Cl)c1N=C1NCCN1` [clonidine] as the compound, how does the “selectivity value (Ki at α2 sites in µM/Ki sites in µM)” value [1] read?
The value was “less than 4”.

Which “Plasma Glucose” value ([2]; Day 0, 10 mg/kg/day) does the source give for `COc1nc(C)nc(Cl)c1N=C1NCCN1` [Moxonidine, 4-chloro-N-(imidazoline-2-ylidene) -6-methoxy-2-methyl-5-pyrimidineamine] here?
The value was 145.6 (2.4) mg/dl.

And the “Plasma Glucose” value ([2]; Day 7, 10 mg/kg/day)?
The value was 148.1 (13.8) mg/dl.

And the “Plasma Glucose” value ([2]; Day 14, 10 mg/kg/day)?
The value was 166.1 (11.2) mg/dl.

What about the “Plasma Glucose” value ([2]; Day 21, 10 mg/kg/day) of the same compound?
The value was 164.2 (8.0) mg/dl.

And the “Plasma Glucose” value ([2]; Day 28, 10 mg/kg/day)?
Its value is 168.0 (12.6) mg/dl.

And the “Plasma Glucose” value ([2]; Day 35, 10 mg/kg/day)?
Its value is 191.6 (8.2) mg/dl.

What about the “Plasma Glucose” value ([2]; Day 42, 10 mg/kg/day) of the same compound?
The value was 179.8 (6.1) mg/dl.

And the “Plasma Glucose” value ([2]; Day 49, 10 mg/kg/day)?
The value was 152.1 (8.7) mg/dl.

What about the “Plasma Glucose” value ([2]; Day 63, 10 mg/kg/day) of the same compound?
Its value is 168.4 (12.6) mg/dl.

And the “Plasma Insulin” value ([3]; Day 0, 10 mg/kg/day)?
Its value is 10.9 (0.9) ng/ml.

And the “Plasma Insulin” value ([3]; Day 7, 10 mg/kg/day)?
Its value is 9.3 (1.0) ng/ml.

What about the “Plasma Insulin” value ([3]; Day 14, 10 mg/kg/day) of the same compound?
Its value is 12.7 (1.4) ng/ml.

What about the “Plasma Insulin” value ([3]; Day 21, 10 mg/kg/day) of the same compound?
Its value is 17.8 (1.2) ng/ml.

What about the “Plasma Insulin” value ([3]; Day 28, 10 mg/kg/day) of the same compound?
Its value is 23.4 (1.8) ng/ml.

And the “Plasma Insulin” value ([3]; Day 35, 10 mg/kg/day)?
Its value is 24.8 (1.4) ng/ml.

What about the “Plasma Insulin” value ([3]; Day 42, 10 mg/kg/day) of the same compound?
The value was 20.6 (0.7) ng/ml.

And the “Plasma Glucose” value ([4]; Treatment period day 0, mox @ 10 m/k/d)?
The value was 141.5333 mg/dL.

What about the “Plasma Glucose” value ([4]; Treatment period day 7, mox @ 10 m/k/d) of the same compound?
The value was 152.8917 mg/dL.

And the “Plasma Glucose” value ([4]; Treatment period day 14, mox @ 10 m/k/d)?
The value was 166.2528 mg/dL.

What about the “Plasma Glucose” value ([4]; Treatment period day 21, at this day reduced mox dose to 6.4 m/k/d) of the same compound?
The value was 172.1556 mg/dL.

What about the “Plasma Glucose” value ([4]; Treatment period day 23, after two days at 6.4 m/k/d, mox @ 10 m/k/d resumed) of the same compound?
Its value is 254.0889 mg/dL.

And the “Plasma Glucose” value ([4]; Treatment period day 28, mox @ 10 m/k/d)?
Its value is 251.4833 mg/dL.

What about the “Plasma Glucose” value ([4]; Treatment period day 36, stopped mox treatment) of the same compound?
Its value is 242.5944 mg/dL.

What about the “Plasma Glucose” value ([4]; Treatment period day 42, 1 wk after mox is removed) of the same compound?
Its value is 265.9556 mg/dL.

What about the “Plasma Glucose” value ([4]; Treatment period day 49, 2 wks after mox is removed) of the same compound?
Its value is 410.425 mg/dL.

From patent EP0857483A1, “Substituted aminopyridines in the treatment of glucose metabolism disorders” (ELI LILLY AND COMPANY, priority 1997, dated 1998)
